Earlier results in patent publication US12433928B2, “Therapeutic treatment for the coronavirus disease COVID-19” (priority 2020, dated 2025).

System: herpes simplex virus type 1 (HSV-1)
Conditions: certain viruses, e.g. HSV-1 in vitro

For `Cc1ccc(C(C)C)c(O)c1` [thymol], the “antiviral activity in medical studies” value is listed as “antiviral activity and effectiveness”.
